The record followed here is patent publication US4965352A, “Anthracycline derivatives having cytostatic activity” (Behringwerke Aktiengesellschaft, priority 1986, dated 1990).

≈ marks a conversion by molar mass, not a printed value.

Series [1] has as its system mouse L1210 leukemia cells. Description: Formation of L1210 leukemia cell colonies in soft agar. The note with it: for IC50: Mus musculus, L1210, 168 h, read-out: Cytotoxicity (continuous incubation) IC50; for cytostatic activity compared with adriamycin: result in words, test not named. It counts as cell-based. As for the experimental part: The cytostatic activity of the compounds according to the invention has been tested using mouse L1210 leukemia cells. Use was made for this of the formation of L1210 leukemia cell colonies in soft agar. This method is used to detect the effect of the test substances on the growth behavior of the cells over several generations. In this connection, with a cell cycle time of 10 to 12 hours, about 14 consecutive generations are observed in the 7-day duration of the test. In this test, the substances having cytostatic activity according to the invention bring about a reduction, compared with an untreated control sample, in the number of colonies which is to be observed.
500 leukemia cells per plate were incubated with various concentrations of the test substance at 37° C. for 1 hour. The cells were then washed twice with McCoy 5A medium, 0.3% agar was added, and finally the mixture was poured into Petri dishes. Controls were incubated only with fresh medium. In place of the incubation for one hour, in some cases various concentrations and test substances were mixed with the upper agar layer in order in this way to achieve continuous exposure of the cells throughout the incubation time. After the agar had solidified, the plates were incubated in an incubator at 37° C. for 7 days (5% by volume CO2, 95% relative atmospheric humidity). Thereafter the number of colonies with a diameter of more than 60μ which had formed was counted. The results have been stated as the number of colonies in treated agar plates as a percentage of the untreated control. The dose-effect graph obtained in this way was used to determine the IC50 as a measure of the activity of the substance. The results for the compounds described here are compiled in Table 1, comparing with adriamycin.

A short description of series [2]: Acute toxicity in NMRI mice after intravenous injection. The note with it: mouse, in vivo, survival on day 14, Litchfield-Wilcoxon. The method, then: Details of the test method are evident from the procecdure for determining the formation of colonies given herein after. Appropriate tests on NMRI mice were carried out to determine the acute toxicity of the anthracycline derivatives according to the invention. Details of the test method are evident from the procedure for determining the acute toxicity given hereinafter.
Determination of the acute toxicity entailed intravenous injection of various doses of the test substance, disolved in 0.5 ml of physiological saline solution, in NMRI mice on day 0. Control groups received only 0.5 ml of physiological saline solution. 5 mice were used for each concentration of the test substance. The number of surviving mice was determined on day 14, and the LD50 was determined therefrom by the Litchfield-Wilcoxon method. The toxicity of the compounds described here is compiled in Table 1, comparing with adriamycin.

For `CC[C@@]1(O)C[C@H](O[C@H]2C[C@H](NC(=O)C(F)(F)F)[C@H](O)[C@H](C)O2)c2c(O)c3c(c(O)c2[C@H]1C(=O)OC)C(=O)c1c(O)ccc(O)c1C3=O` [Compound 5, 7-O-(3'-N-trifluoroacetyl-α-L-daunosaminyl)-ε-isorhodomycinone], in series [1], the IC50 was determined as 0.4 µg/mL (≈ 0.597 µM).

As for `COc1cccc2c1C(=O)c1c(O)c3c(c(O)c1C2=O)C[C@@](O)(C(=O)CO)C[C@@H]3O[C@H]1C[C@H](N)[C@H](O)[C@H](C)O1` [Adriamycin, reference compound], the IC50 in series [1] is 0.02 µg/mL (≈ 0.0368 µM). In series [2], this molecule registered an LD50 at 336 h of 26.5 mg/kg.

In the case of `CC[C@@]1(O)C[C@H](O[C@H]2C[C@H](NC)[C@H](OC(C)=O)[C@H](C)O2)c2c(O)c3c(c(O)c2[C@H]1C(=O)OC)C(=O)c1c(O)ccc(O)c1C3=O` [Compound 8, 7-O-(4'-O-acetyl-3'-N-methyl-α-L-daunosaminyl)-ε-isorhodomycinone], the IC50 in series [1] was 0.1 µg/mL (≈ 0.159 µM).

On to `CC[C@@]1(O)C[C@H](O[C@H]2C[C@H](NC)[C@H](O)[C@H](C)O2)c2c(O)c3c(c(O)c2[C@H]1C(=O)OC)C(=O)c1c(O)ccc(O)c1C3=O` [Compound 9, 7-O-(3'-N-methyl--L-daunosaminyl)-ε-isorhodomycinone], for which, in series [1], the half-inhibitory concentration (IC50) amounted to 0.028 µg/mL (≈ 0.0477 µM).

As to `CC[C@@]1(O)C[C@H](O[C@H]2C[C@H](N(C)C)[C@H](OC(C)=O)[C@H](C)O2)c2c(O)c3c(c(O)c2[C@H]1C(=O)OC)C(=O)c1c(O)ccc(O)c1C3=O` [Compound 1, 7-O-(4'-O-acetyl--L-rhodosaminyl)-ε-isorhodomycinone], in series [1], the IC50 came out at 0.028 µg/mL (≈ 0.0435 µM) and the “cytostatic activity compared with adriamycin” value is listed as “comparable with that of adriamycin”. Moreover, the median lethal dose (LD50) at 336 h in series [2] came to 89 mg/kg.

For the molecule `CC[C@@]1(O)C[C@H](O[C@H]2C[C@H](N(C)C)[C@H](O)[C@H](C)O2)c2c(O)c3c(c(O)c2[C@H]1C(=O)OC)C(=O)c1c(O)ccc(O)c1C3=O` [Compound 2, 7-O-(α-L-rhodosaminyl)-ε-isorhodomycinone], in series [1], the IC50 turned out to be 0.035 µg/mL (≈ 0.0582 µM) and the “cytostatic activity compared with adriamycin” value is on record as “comparable with that of adriamycin”. This molecule also gave an LD50 at 336 h in series [2] of 50 to 100 mg/kg.

One may read the IC50 as the concentration that inhibits the measured activity by half. By LD50 is commonly meant the dose expected to kill half of the subjects tested. Low values mean greater toxicity, high ones lower toxicity.
